Laboratory results: US4987125A, “Antithrombotic activity of the triterpenoids of ilex pubescens and the conversion method of the triterpenoids of ilex pubescens having no antithrombotic activity into the triterpenoids having antithrombotic activity” (Cheil Sugar & Co., Ltd., priority 1988, dated 1991)
“Also recorded” adds a separate entry of the source.

Legend:
[1] = test system: Malondialdehyde (MDA) produced by platelet; assay: Inhibition of malondialdehyde (MDA) generation by thrombin-stimulated platelets (TBA method); type: cell-based, rats (Male Sprague-Dawley); details: rat platelet
Description: A platelet is agglutinated by the stimulus on thrombin. TXA2 is released by this stimulation, and it accelerated the agglutination of the platelet. And the malondialdehyde(MDA) is released with TXA2 . It is conducted whether the extract of the Ilex pubescens inhibits the production of MDA (Determination of Melondialdehyde) or not by the colorimetry method. As the extraction solvent, methanol, butanol and water are used. […] Their structures are as follows:
Male Sprague-Dawley rats, weightin 180-200 g, were used in experiment. Blood was collected by the same method with (test 1-2). 100 sample was let stand for 20 minutes, in polypropylene tube. It was centrifuged (1400 r.p.m. for 20 minutes) at 10° C. to obtain platelet rich plasma (PRP). PRP was recentrifuged (2800 r.m.p., for 20 minutes) at 10° C. to obtain precipitated platelet pellet. Platelet was suspended in 0.01 M of pH 7.4 phosphate buffer (1×10^9 cell/ml). To the platelet suspension, 100 µl of methanol extracts of Ilex pubescens was added and the reaction mixture was preincubated in thermostat of 37° C. for 20 minutes. 50 µl of thrombin (10 U) was then added to agglutinate the platelet, and thiobarbituric acid (TBA) was added as the couple. This reaction mixture was extracted by 2 ml of n-butanol and the n-butanol phase was separated by centrifugation (1200 r.p.m. for 10 minutes) at 30° C. The absorbance of n-butanol phase was observed by UV-spectrophotometer at 534 nm.
1 kg of root of Ilex pubescens was powdered and the powder of Ilex pubescens was extracted 4 times with each 500 ml of 70% methanol by heating in water bath. […] 12 g of methanol extract was suspended in the small amount of water and extracted with butanol several times. […] 12 g of methanol extract of Ilex pubescens, 4.1 g of butanol fraction and 6 g of water fraction were dissolved to 20 ml of methanol solutions, respectively. 1m1 of each solution was taken in test tube and methanol was removed under nitrogen atmosphere. Residue was suspended in 1m1 of 0.01 M phosphate buffer. 0.1 ml of suspension was used as sample.
*1 ml of washed platelet (1 × 10^9 cells/ml) of rats was
preincubated (37° C. for 30 minutes) with 0.1 ml of sample in 0.01
M phosphate buffer (pH 7.4, in normal saline). Then, to the agglutinated
platelet, 50 μl of bovine thrombin (10 U) was added.
**MDA was determined by the method of TBA. Each value is the mean of 2
Therefore, 4.1 g of butanol fraction was dissolved in 10 ml of methanol and chromatographed on Sephadex LH-20 column (Sigma Co., 3.8×66 cm) with methanol as eluant. After the first eluate (260 ml) corresponding to the void volume of the column was eluted, the eluate was collected in test tubes at the volume of 21ml. 12 fractions were obtained.
Each fraction was dissolved in 10 ml of methanol and 0.5 ml of methanol solution was taken. The solvent was evaporated under nitrogen atmosphere. The residue was suspended in 1m1 of 0.01 M phosphate buffer and 0.1m1 was used as sample. Inhibition of MDA generation was measured by the same method with Test 2-1).
*4.1 g of butanol extract was chromatographed on Sephadex LH20 column (3,
× 66 cm) with methanol as eluant.
**Each fraction was dissolved in 10 ml of methanol and 0.5 ml of solution

thromboxane synthase = details: known property; cited from earlier work

| Compound | inhibition of MDA generation, result in words [1] | further results |
| --- | --- | --- |
| C[C@H]1CC[C@]2(C(=O)O)CC[C@]3(C)C(=CC[C@@H]4[C@@]5(C)CC[C@H](O[C@@H]6OC[C@@H](O)[C@H](O)[C@H]6O[C@@H]6O[C@H](CO)[C@@H](O)[C@H](O)[C@H]6O)C(C)(C)[C@@H]5CC[C@]43C)[C@@H]2[C@]1(C)O [Ilexoside D] | exhibited the greatest antithrombic activity | inhibition of MDA generation, result in words ([1]; listed as ilexoside D): effective; also recorded: inhibits MDA production |
| c1c[nH]cn1 [Imidazole] |  | inhibition of thromboxane synthase, in words (thromboxane synthase): known as the inhibitor of thromboxane synthase |
| C[C@@H]1O[C@@H](O[C@H]2[C@H](O[C@H]3[C@H](O[C@H]4CC[C@]5(C)[C@H]6CC=C7[C@H]8[C@](C(=O)O[C@@H]9O[C@H](CO)[C@@H](O)[C@H](O)[C@H]9O)(CC[C@H](C)[C@@]8(C)O)CC[C@@]7(C)[C@]6(C)CC[C@H]5C4(C)C)OC[C@@H](O)[C@@H]3O)O[C@H](CO)[C@@H](O)[C@@H]2O)[C@H](O)[C@H](O)[C@H]1O [Ilexoside O] | exhibited no effect | inhibition of MDA generation, result in words ([1]; listed as ilexoside O): ineffective |
| Prosapogenin A | did not inhibit MDA generation |  |
| C[C@H]1CC[C@]2(C(=O)O[C@@H]3O[C@H](CO)[C@@H](O)[C@H](O)[C@H]3O)CC[C@]3(C)C(=CC[C@@H]4[C@@]5(C)CC[C@H](O[C@@H]6OC[C@@H](O)[C@H](O)[C@H]6O[C@@H]6O[C@H](CO)[C@@H](O)[C@H](O)[C@H]6O)C(C)(C)[C@@H]5CC[C@]43C)[C@@H]2[C@]1(C)O [Ilexoside K] | had no effect; also recorded: ineffective |  |
| CC1CCC2(C(=O)O)CCC3(C)C(=CCC4C5(C)CCC(O)C(C)(C(=O)O)C5CCC43C)C2C1(C)O (stereo not drawn) [Pubescenic acid] | inhibits MDA production | IC50 (concentration inhibiting 50% of MDA generation) ([1]; isolated components, imidazole as control): 0.41 mg |
